Earlier results on 21 compounds are cited in US20020055536A1, “System and method for structure-based drug design that includes accurate prediction of binding free energy” (priority 1996, published 2002).

The target of one data set is T1, HIV-1 protease (Human immunodeficiency virus type 1 group M subtype B, UniProt P04585).
T1 construct: The following HIV-1 protease ligands were tested by the method of the present invention

Data set [1] deals with purine nucleoside phosphorylase. The settings on record: for IC50: 1 mM phosphate, Ki or IC50 not distinguished; for Phosphate sensitivity: change of binding constant upon increase of phosphate to 50 mM.

The term Ki denotes a measure of affinity in units of concentration, obtained from inhibition or displacement. Consider `CC(C)C(O)c1cnc(C(Cc2ccccc2)CC(O)C(Cc2ccccc2)NC(=O)OC(C)(C)C)[nH]1` [B Boc iPr(S)], for which the Ki at HIV-1 protease was 2.7 µM.
Consider `CC(C)(C)OC(=O)NC(Cc1ccccc1)C(O)CC(Cc1ccccc1)c1ncc(C=O)[nH]1` (centres unmarked) [A Boc H], for which, at HIV-1 protease, the Ki was 3.5 µM.
Regarding `CC(O)c1cnc(C(Cc2ccccc2)CC(O)C(Cc2ccccc2)NC(=O)OC(C)(C)C)[nH]1` [B Boc Me(S)], the Ki on HIV-1 protease was 13.3 µM.
By IC50 is commonly meant the point on the concentration scale where inhibition reaches its midpoint. Turning to `Nc1nc2c(ncn2COCCOP(=O)(O)O)c(=O)[nH]1` [acyclovirMP], in data set [1], the IC50 was 6.6 µM and the Phosphate sensitivity result is “low (those whose binding constant changes by a factor of 15 or less upon increase of the concentration of phosphate to 50 mM)”.
For the compound `Nc1nc(O)c2ncn(COCCOP(=O)(O)OP(=O)(O)O)c2n1` [acyclovirDP], the Phosphate sensitivity entry in data set [1] was “high (The highly sensitive molecules are affected in some instances by a factor of 140)”.
Turning to `Nc1nc2c(ncn2[C@H]2C[C@H](O)[C@@H](COP(=O)(O)O)O2)c(=O)[nH]1` [dGMP], in data set [1], the concentration for half-maximal inhibition (IC50) is 300 µM and the Phosphate sensitivity entry is given as “low (those whose binding constant changes by a factor of 15 or less upon increase of the concentration of phosphate to 50 mM)”.
Consider `Nc1nc2c(ncn2[C@@H]2O[C@H](COP(=O)(O)OP(=O)(O)O)[C@@H](O)[C@H]2O)c(=O)[nH]1` [GDP], for which, in data set [1], the IC50 was 360 µM and the Phosphate sensitivity entry is reported as “low (those whose binding constant changes by a factor of 15 or less upon increase of the concentration of phosphate to 50 mM)”.
For the compound `Nc1nc2c(ncn2COCCO)c(=O)[nH]1` [acyclovir], in data set [1], the IC50 is 200 µM and the Phosphate sensitivity result was “low (those whose binding constant changes by a factor of 15 or less upon increase of the concentration of phosphate to 50 mM)”.
As to `Nc1nc2c(ncn2COCCOP(=O)(O)OP(=O)(O)OP(=O)(O)O)c(=O)[nH]1` [acyclovirTP], in data set [1], the IC50 was 0.31 µM and the Phosphate sensitivity result is given as “high (The highly sensitive molecules are affected in some instances by a factor of 140)”.
Turning to `CC(C)C(NC(=O)C(Cc1ccccc1)CC(O)C(Cc1ccccc1)NC(=O)OC(C)(C)C)c1nnc[nH]1` (centres unmarked) [D N], the Ki at HIV-1 protease is 0.0042 µM.
For `Nc1nc2c(ncn2[C@@H]2O[C@H](COP(=O)(O)O)[C@@H](O)[C@H]2O)c(=O)[nH]1` [GMP], in data set [1], the IC50 is 530 µM and the Phosphate sensitivity result is on record as “low (those whose binding constant changes by a factor of 15 or less upon increase of the concentration of phosphate to 50 mM)”.
Regarding `CC(C)C(=O)c1cnc(C(Cc2ccccc2)CC(O)C(Cc2ccccc2)NC(=O)OC(C)(C)C)[nH]1` (centres unmarked) [A Boc i-Pr], the Ki at HIV-1 protease is 0.083 µM.
Turning to `Nc1nc2c(ncn2[C@@H]2O[C@H](COP(=O)(O)OP(=O)(O)OP(=O)(O)O)[C@@H](O)[C@H]2O)c(=O)[nH]1` [GTP], in data set [1], the half-inhibitory concentration (IC50) is 490 µM and the Phosphate sensitivity result is listed as “low (those whose binding constant changes by a factor of 15 or less upon increase of the concentration of phosphate to 50 mM)”.
In the case of `CC(O)c1cnc(C(Cc2ccccc2)CC(O)C(Cc2ccccc2)NC(=O)OC(C)(C)C)[nH]1` [B Boc Me(R)], the inhibition constant Ki on HIV-1 protease is 13.3 µM.
For the compound `CC(C)C(O)c1cnc(C(Cc2ccccc2)CC(O)C(Cc2ccccc2)NC(=O)OC(C)(C)C)[nH]1` [B Boc i-Pr(R)], on HIV-1 protease, the Ki is 2.7 µM.
Consider `Nc1nc2c(ncn2[C@H]2C[C@H](O)[C@@H](COP(=O)(O)OP(=O)(O)OP(=O)(O)O)O2)c(=O)[nH]1` [dGTP], for which, in data set [1], the IC50 is 32 µM and the Phosphate sensitivity entry was “high (The highly sensitive molecules are affected in some instances by a factor of 140)”.
As to `CCC(=O)c1cnc(C(Cc2ccccc2)CC(O)C(Cc2ccccc2)NC(=O)OC(C)(C)C)[nH]1` (centres unmarked) [A Boc Et], the Ki at HIV-1 protease is 0.092 µM.
As to `C=CC(C)(C)C(=O)c1cnc(C(Cc2ccccc2)CC(O)C(Cc2ccccc2)NC(=O)OC(C)(C)C)[nH]1` (centres unmarked) [A Boc CMe2CHCH2], the Ki at HIV-1 protease is 0.27 µM.
With `CCCC(=O)c1cnc(C(Cc2ccccc2)CC(O)C(Cc2ccccc2)NC(=O)OC(C)(C)C)[nH]1` (centres unmarked) [A Boc n-Pr], the Ki on HIV-1 protease was 0.15 µM.
Turning to `CC(C)C(NC(=O)C(Cc1ccccc1)CC(O)C(Cc1ccccc1)NC(=O)OC(C)(C)C)c1ncc[nH]1` (centres unmarked) [D CH], the Ki at HIV-1 protease was 0.018 µM.
On to `CC(=O)c1cnc(C(Cc2ccccc2)CC(O)C(Cc2ccccc2)NC(=O)OC(C)(C)C)[nH]1` (centres unmarked) [A Boc Me], for which the Ki at HIV-1 protease is 0.37 µM.
